Results published in patent US20040037806A1, “Aldosterone blocker therapy to prevent or treat inflammation-related disorders” (Pharmacia Corporation, priority 2002, published 2004).
Entries after “also recorded” stand apart in the source; their conditions may differ.

Legend:
Format in all cases: in vivo, rat
[1] = Assay A: angiotensin II infusion model, heart histology (hematoxylin&eosin), vascular inflammation and myocardial injury; conditions: Wistar rats, 1% NaCl, angiotensin II 25 ng/min sc, 4 weeks, 10/group; eplerenone 100 mpk; aldosterone replacement in adrenalectomized rats
Source text: Assay A: In Vivo Angiotensin II Infusion Model
Male Wistar rats (n=50, 10/group; BW=200 g)
Sacrifice by exanguination after 4 weeks. Blood was be collected in dry tubes for determination of serum electrolytes and in EDTA-containing tubes for measurement of aldosterone and corticosterone levels
Hearts were stained with hematoxylin&eosin and have been analyzed for determination of morphologic abnormalities (i.e. necrosis, vascular injury).

[2] = Assay B: aldosterone infusion model, heart histology, vascular inflammatory lesions and myocardial injury; conditions: aldosterone-infused, saline-drinking, uni-nephrectomized Sprague Dawley rats, 4 weeks; eplerenone 100 mpk p.o; 0.6% KCl in the drinking fluid
Description: Assay B: In Vivo Aldosterone Infusion Model
Male Sprague Dawley rats (n=39; BW=250 g)
→ Hearts were harvested and divided by half through a transverse section at the mid-ventricles: The upper half was stored into formalin. The bottom part was snap-frozen in liquid nitrogen for biochemical analysis.
Hearts were stained with hematoxylin&eosin and the collagen specific dye picro-sirius red and were analyzed for determination of interstitial collagen volume fraction and morphologic abnormalities (i.e. necrosis, vascular injury).

[3] = Assay C: body weight, ventricle weights, tibia length (myocardial hypertrophy); conditions: for Ventricular hypertrophy (absolute ventricular weights, ventricular weight to tibia length ratios): aldosterone+salt alone or with eplerenone 100 mg/kg/day, 7, 14, 30 days; for Body weight: aldosterone+salt at days 7, 14 and 30 vs vehicle+salt, eplerenone 100 mg/kg/day effect at day 30
Description: The procedure of Assay B was expanded upon in a further study. […] Myocardial tissue from animals in each treatment group was examined after 7, 14, or 30 days of treatment. […] Lesions were preceded by the expression and progressive upregulation of proinflammatory molecules. […] Male Sprague-Dawley rats, weighing 230 to 250 g, (Harlan Sprague-Dawley Industries, Indianapolis, Ind.) were housed in a room 12-hours light/12-hours dark daily cycle at an ambient temperature of 22±1° C. (n=96). Animals were allowed one week to adjust after arrival and had free access to TEKLAD 22/5 rodent diet (Harlan TEKLAD, Madison, Wis.) and tap water until the initiation of the experiment. Prior to surgery the animals were individually weighed and placed in one of the following groups: […] Potassium chloride supplementation was added to the saline solution in order to prevent the potential hypokalemia associated with aldosterone excess. Treatment At the time of the surgery, an Alzet 2002 osmotic minipump (Alza Corp., Palo Alto, Calif.) containing either vehicle (9% ethanol/87% propylene glycol/4% dH2O) or 1.0 mg/mL d-aldosterone (Sigma Chemical, St. Louis, Mo.) was inserted subcutaneously at the nape of the neck. Aldosterone was administered at a dose of 0.75 µg/hour. […] Animals were sacrificed from each group (n=8-13) after 7, 14, or 30 days of treatment. At the cessation of each experimental time point, the animals were anesthetized with pentobarbital (65 mg/kg i.p., Sigma Chemical, St. Louis Mo.) and weighed with a Mettler PM6000 balance (Mettler-Toledo, Inc., Hightstown, N.J.). The abdominal cavity was opened to expose the abdominal aorta. A 16-gauge needle was inserted into the abdominal aorta and the animal was exsanguinated into a 12 cc syringe. The blood sample was transferred immediately into glass serum collection tubes (Terumo Medical Corp., Elkton, Md.) for drug level analysis. The samples were placed on wet ice until sample collection was complete and centrifuged for 15 min at 3000 rev/min at 4° C. Following exsanguination, hearts and kidneys were isolated, removed, rinsed in cold phosphate-buffered saline, and blotted dry. Kidneys were immediately bifurcated through the long axis with a razor blade and placed in 10% neutral buffered formalin (NBF, Richard-Allen Scientific, Kalamazoo, Mich.). For the hearts, the right ventricle (RV) was cut away from the left ventricle (LV), both ventricles were weighed using a Mettler AE163 balance (Mettler-Toledo, Inc., Hightstown, N.J.), and the RV was placed in 10% NBF. […] Final wet trimming was completed after 3-4 days fixation where a second 2 mm coronal slab was removed for hydroxyproline analysis and a third 2mm slab was removed from the equatorial region for histology.

[4] = tested on: Osteopontin, ED-1, CD-3, ICAM-1, VCAM-1; assay: Assay C: immunohistochemistry of myocardial tissue; conditions: aldosterone+salt alone or with eplerenone 100 mg/kg/day
Description: The procedure of Assay B was expanded upon in a further study. […] Myocardial tissue from animals in each treatment group was examined after 7, 14, or 30 days of treatment. […] Lesions were preceded by the expression and progressive upregulation of proinflammatory molecules.
Potassium chloride supplementation was added to the saline solution in order to prevent the potential hypokalemia associated with aldosterone excess.
Treatment At the time of the surgery, an Alzet 2002 osmotic minipump (Alza Corp., Palo Alto, Calif.) containing either vehicle (9% ethanol/87% propylene glycol/4% dH2O) or 1.0 mg/mL d-aldosterone (Sigma Chemical, St. Louis, Mo.) was inserted subcutaneously at the nape of the neck. Aldosterone was administered at a dose of 0.75 µg/hour. […] Animals were sacrificed from each group (n=8-13) after 7, 14, or 30 days of treatment.
Five μm sections were deparaffinized in xylene (two, 5-10 min incubations) and rehydrated by 3 min incubations in ethanol as follows: two incubations in 100% ethanol followed by two incubations in 95% alcohol and one incubation in 70% alcohol. Once hydrated, sections were rinsed in tap water for 1 min and distilled water for 1 min. Endogenous peroxide activity was blocked by placing slides in 3.0% H2O2 for 15 min followed by a 5 min rinse in distilled water. Slides were processed for antigen retrieval using citric acid, pH6.0. […]

Row | Structure (SMILES) | Vascular inflammatory lesions in the coronary arteries / heart [1] | Vascular inflammatory lesions / myocardial injury (hematoxylin-eosin) [2] | Ventricular hypertrophy (absolute ventricular weights, ventricular weight to tibia length ratios) [3] | Body weight [3] | Immunohistochemical staining of marker proteins in myocardial tissue [4] | Final Body Weight ([3]; 7 days of treatment, uninephrectomized Sprague-Dawley rats, 1% NaCl-0.3% KCl, aldosterone infusion alone or with eplerenone 100 mg/kg/day, individual rats and group Mean)
1 | C[C@]12CCC(=O)C=C1CC[C@@H]1[C@@H]2[C@@H](O)C[C@]2(C=O)[C@@H](C(=O)CO)CC[C@@H]12 [aldosterone] | restored the severe coronary and myocardial inflammation and injury | severe vascular inflammatory lesions | Significant left and right ventricular hypertrophy | significantly lower | Significant expression of osteopontin | –
2 | COC(=O)[C@@H]1CC2=CC(=O)CC[C@]2(C)[C@@]23O[C@@H]2C[C@@]2(C)[C@@H](CC[C@@]24CCC(=O)O4)[C@H]13 [eplerenone] | prevention by eplerenone (epoxymexrenone) of vascular inflammation; also recorded: one of the ten | completely prevented the vascular inflammatory changes; also recorded: prevention by eplerenone of myocardial injury | did not impact absolute ventricular weights or ventricular weight to tibia length ratios | significantly attenuated | markedly blunted | 286 g
